# Measurements as given in publication PMC3025750 (Journal of medicinal chemistry, 2010).
# “Also recorded” adds a separate entry of the source.
# Legend:
# [1] = test system: TCR-induced activation of the proximal IL-2 promoter (NFAT/AP-1) in Jurkat TAg T cells; test: NFAT/AP-1 dual luciferase reporter assay; format: cell-based; conditions: for NFAT/AP-1 activation in TCR-stimulated sample compared to DMSO control / NFAT/AP-1 signaling in unstimulated sample: 5 μM compound; for NFAT/AP-1 activation in TCR-stimulated sample compared to DMSO control: 45 min, then OKT3 6 hours; for NFAT/AP-1 activation in TCR-stimulated sample compared to DMSO control / dose-dependence of TCR-induced NFAT/AP-1 activation / NFAT/AP-1 signaling in unstimulated sample: Jurkat TAg T cells; for dose-dependence of TCR-induced NFAT/AP-1 activation: dose-response 0.1 to 30 μM; for NFAT/AP-1 signaling in unstimulated sample: no TCR stimulation
# [2] = test system: Lck-pY394 and pζ-chain phosphorylation in Jurkat TAg T cells; test: Immunoblotting of Lyp's substrates Lck-pY394 and pζ-chain after TCR stimulation; format: cell-based; conditions: 45 min at 37°C, then TCR stimulation, immunoblot
# recombinant Lyp = recombinant Lyp (Homo sapiens, UniProt Q9Y2R2); conditions: ratio of IC50 values
# recombinant Lyp, sequence (Q9Y2R2 2-309): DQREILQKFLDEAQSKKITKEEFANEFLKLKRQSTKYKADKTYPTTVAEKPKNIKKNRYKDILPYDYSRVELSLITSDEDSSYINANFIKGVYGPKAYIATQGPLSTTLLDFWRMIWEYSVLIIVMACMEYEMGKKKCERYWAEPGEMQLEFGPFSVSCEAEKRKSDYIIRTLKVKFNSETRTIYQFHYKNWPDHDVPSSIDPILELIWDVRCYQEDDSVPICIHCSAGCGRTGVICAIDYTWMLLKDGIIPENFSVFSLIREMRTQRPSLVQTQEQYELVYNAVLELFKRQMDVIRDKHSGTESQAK
SMILES,compound concentration at which NFAT/AP-1 activation was augmented [1],NFAT/AP-1 activation in TCR-stimulated sample compared to DMSO control [1],dose-dependence of TCR-induced NFAT/AP-1 activation [1],concentration at which pTyr levels of Lck-pY394 and pζ-chain were augmented [2],NFAT/AP-1 signaling in unstimulated sample [1],improvement of Lyp inhibitory activity over the original compound 478 (recombinant Lyp)
"COc1ccc2nc(NC(=O)CCCn3cc(-c4c(-c5cccc(C)c5)oc5cc(O)c(C(=O)O)cc45)nn3)sc2c1 [Compound 630, 6-hydroxy-3-(1-(4-(6-methoxybenzo[d]thiazol-2-ylamino)-4-oxobutyl)-1H-1,2,3-triazol-4-yl)-2-m-tolylbenzofuran-5-carboxylic acid]",≥ 3 µM,considerable higher NFAT/AP-1 activation,dose-dependent effect,30 μM,–,–
"COC(=O)c1cc2c(-c3cn(CCCC(=O)Nc4ccc(Cl)c5ccccc45)nn3)c(-c3ccccc3)oc2cc1O [Compound 486, Methyl 3-(1-(4-(4-chloronaphthalen-1-ylamino)-4-oxobutyl)-1H-1,2,3-triazol-4-yl)-6-hydroxy-2-phenylbenzofuran-5-carboxylate]",submicromolar,considerable higher NFAT/AP-1 activation,dose-dependent effect,5 μM,–,–
O=C(CCn1cc(-c2c(-c3ccccc3)oc3cc(O)c(C(=O)O)cc23)nn1)Nc1cccc2ccccc12 [Compound 495],–,considerable higher NFAT/AP-1 activation,–,–,–,–
"COc1ccc(-c2oc3cc(O)c(C(=O)O)cc3c2-c2cn(CCCC(=O)Nc3cccc4ccccc34)nn2)cc1 [Compound 584, 6-hydroxy-2-(4-methoxyphenyl)-3-(1-(4-(naphthalen-1-ylamino)-4-oxobutyl)-1H-1,2,3-triazol-4-yl)benzofuran-5-carboxylic acid]",submicromolar,considerable higher NFAT/AP-1 activation,dose-dependent effect,3 μM,–,–
Cc1ccc(-c2oc3cc(O)c(C(=O)O)cc3c2-c2cn(CCC(=O)Nc3cccc4ccccc34)nn2)cc1 [Compound 530],–,considerable higher NFAT/AP-1 activation,–,–,–,–
"Cc1ccc(-c2oc3cc(O)c(C(=O)O)cc3c2-c2cn(CCCC(=O)Nc3cccc4ccccc34)nn2)cc1 [Compound 522, 6-hydroxy-3-(1-(4-(naphthalen-1-ylamino)-4-oxobutyl)-1H-1,2,3-triazol-4-yl)-2-p-tolylbenzofuran-5-carboxylic acid]",submicromolar,considerable higher NFAT/AP-1 activation,dose-dependent effect,10 μM,–,–
"Cc1ccc(-c2oc3cc(O)c(C(=O)O)cc3c2-c2cn(CCCC(=O)Nc3ccc(Cl)c4ccccc34)nn2)cc1 [Compound 525, 3-(1-(4-(4-chloronaphthalen-1-ylamino)-4-oxobutyl)-1H-1,2,3-triazol-4-yl)-6-hydroxy-2-p-tolylbenzofuran-5-carboxylic acid]",submicromolar,considerable higher NFAT/AP-1 activation,dose-dependent effect,30 μM,–,–
Cc1ccc(-c2oc3cc(O)c(C(=O)O)cc3c2-c2cn(CCCC(=O)Nc3cccc4cccnc34)nn2)cc1 [Compound 523],–,considerable higher NFAT/AP-1 activation,–,–,–,–
O=C(CCCCn1cc(-c2c(-c3ccccc3)oc3cc(O)c(C(=O)O)cc23)nn1)Nc1cccc2ccccc12 [Compound 496],–,considerable higher NFAT/AP-1 activation,–,–,–,–
"O=C(CCCn1cc(-c2c(-c3ccccc3)oc3cc(O)c(C(=O)O)cc23)nn1)Nc1cccc2ccccc12 [Compound 478, reference compound]",–,did not show an effect,–,–,–,–
Cc1ccc(-c2oc3cc(O)c(C(=O)O)cc3c2-c2cn(CCCC(=O)Nc3ccc(Br)c4ccccc34)nn2)cc1 [Compound 526],–,modest,–,–,substantially augmented signaling; also recorded: enhanced T cell signaling in a non TCR-mediated manner,17 fold
O=C(CCCn1cc(-c2c(-c3ccccc3)oc3cc(O)c(C(=O)O)cc23)nn1)Nc1ccc(Br)c2ccccc12 [Compound 482],–,–,–,–,substantially augmented signaling; also recorded: enhanced T cell signaling in a non TCR-mediated manner,–
